# Test results: PMC10794144, “A novel antibiotic class targeting the lipopolysaccharide transporter” (Nature, 2024)
# Where two headings read alike, the source gives them in different places.
# System: A. baumannii
# Test: MIC, broth microdilution in CAMHB supplemented with human serum, read at 100% growth inhibition
# Assay type: cell-based, Acinetobacter baumannii
# Description: MIC determinations were performed using the broth microdilution method and in line with CLSI guidelines M07 and M100 (refs. [37],[38]). Bacterial inocula were prepared by diluting a 0.5 McFarland suspension in CAMHB or lysogeny broth (LB) specifically for A. baylyi isolates. […] MIC values of all of the tested antibiotics were read as the lowest compound concentration inhibiting bacterial growth by naked eye or beyond which the OD600 ceased to decrease.
structure (smiles),measurement,setting,value
CN1C(=O)[C@H](CCCCN)NC(=O)[C@H](CCCN)NCc2cccnc2Sc2cccc(-c3ccc(C(=O)O)cc3)c2CNC(=O)[C@@H]1Cc1c[nH]c2ccccc12 [zosurabalpin],MIC range,129 clinical isolates,≤0.016 to 4 µg/mL
same,MIC,"ACC01073, CAMHB + 20% HS",2 µg/mL
same,MIC,"Acinetobacter baumannii, ACC00445, CAMHB + 20% HS, read-out: MIC",0.25 µg/mL
same,MIC,"Acinetobacter baumannii, ACC00535, CAMHB + 20% HS, read-out: MIC",0.12 µg/mL
same,MIC,"Acinetobacter baumannii, ACC01073, CAMHB + 20% HS, read-out: MIC",2 µg/mL
same,MIC,"Acinetobacter baumannii, ACC01077, CAMHB + 20% HS, read-out: MIC",0.25 µg/mL
same,MIC,"Acinetobacter baumannii, ACC01085 / AR0307, CAMHB + 20% HS, read-out: MIC",0.5 µg/mL
same,MIC,"Acinetobacter baumannii, ATCC17978, ATCC 17978, CAMHB + 20% HS, read-out: MIC",0.12 µg/mL
same,MIC,"Acinetobacter baumannii, ATCC19606, ATCC 19606, CAMHB + 20% HS, read-out: MIC",0.5 µg/mL
same,MIC,"Acinetobacter baumannii, ATCCBAA747, ATCC BAA-747, CAMHB + 20% HS, read-out: MIC",≤ 0.06 µg/mL
same,MIC,"Acinetobacter baumannii, ROB08701, 129-isolate panel, 20% HS, read-out: MIC",0.06 µg/mL
same,MIC,"Acinetobacter baumannii, ROB08701, CAMHB + 20% HS, read-out: MIC",≤ 0.06 µg/mL
same,MIC,"Acinetobacter baumannii, ROB08702, 129-isolate panel, 20% HS, read-out: MIC",0.125 µg/mL
same,MIC,"Acinetobacter baumannii, ROB08702, CAMHB + 20% HS, read-out: MIC",0.12 µg/mL
same,MIC,"Acinetobacter baumannii, ROB08703, 129-isolate panel, 20% HS, read-out: MIC",0.5 µg/mL
same,MIC,"Acinetobacter baumannii, ROB08703, CAMHB + 20% HS, read-out: MIC",2 µg/mL
same,MIC,"Acinetobacter baumannii, ROB08704, 129-isolate panel, 20% HS, read-out: MIC",0.25 µg/mL
same,MIC,"Acinetobacter baumannii, ROB08704, CAMHB + 20% HS, read-out: MIC",0.25 µg/mL
same,MIC,"Acinetobacter baumannii, ROB08705, 129-isolate panel, 20% HS, read-out: MIC",0.06 µg/mL
same,MIC,"Acinetobacter baumannii, ROB08705, CAMHB + 20% HS, read-out: MIC",0.25 µg/mL
same,MIC,"Acinetobacter baumannii, ROB08706, 129-isolate panel, 20% HS, read-out: MIC",0.125 µg/mL
same,MIC,"Acinetobacter baumannii, ROB08706, CAMHB + 20% HS, read-out: MIC",1 µg/mL
same,MIC,"Acinetobacter baumannii, ROB08707, 129-isolate panel, 20% HS, read-out: MIC",0.03 µg/mL
same,MIC,"Acinetobacter baumannii, ROB08707, CAMHB + 20% HS, read-out: MIC",≤ 0.06 µg/mL
same,MIC,"Acinetobacter baumannii, ROB08708, 129-isolate panel, 20% HS, read-out: MIC",0.125 µg/mL
same,MIC,"Acinetobacter baumannii, ROB08708, CAMHB + 20% HS, read-out: MIC",0.25 µg/mL
same,MIC,"Acinetobacter baumannii, ROB08709, 129-isolate panel, 20% HS, read-out: MIC",0.03 µg/mL
same,MIC,"Acinetobacter baumannii, ROB08709, CAMHB + 20% HS, read-out: MIC",≤ 0.06 µg/mL
same,MIC,"Acinetobacter baumannii, ROB08710, 129-isolate panel, 20% HS, read-out: MIC",0.125 µg/mL
same,MIC,"Acinetobacter baumannii, ROB08710, CAMHB + 20% HS, read-out: MIC",0.12 µg/mL
same,MIC,"Acinetobacter baumannii, ROB08961 (LpxM NS), 20% HS, read-out: MIC",4 µg/mL
same,MIC,"Acinetobacter baumannii, ROB08979 (LptF R322L), 20% HS, read-out: MIC",8 µg/mL
same,MIC,"Acinetobacter baumannii, ROB08982 (lpxM ISAba1), 20% HS, read-out: MIC",4 µg/mL
same,MIC,"Acinetobacter baumannii, ROB08985 (LpxM NS), 20% HS, read-out: MIC",4 µg/mL
same,MIC,"Acinetobacter baumannii, ROB08997 (LptF I323K), 20% HS, read-out: MIC",16 µg/mL
same,MIC,"Acinetobacter baumannii, ROB08998 (AdeR A91V), 20% HS, read-out: MIC",8 µg/mL
same,MIC,"Acinetobacter baumannii, ROB09000 (lpxM ISAba1), 20% HS, read-out: MIC",8 µg/mL
same,MIC,"Acinetobacter baumannii, ROB21530 (LptF W271S), 20% HS, read-out: MIC",16 µg/mL
same,MIC,"Acinetobacter baumannii, ROB21531 (LptG G40D), 20% HS, read-out: MIC",8 µg/mL
same,MIC,"Acinetobacter baumannii, ROB21532 (LptF R322C), 20% HS, read-out: MIC",64 µg/mL
same,MIC,"Acinetobacter baumannii, ROB21533 (LptF I317L), 20% HS, read-out: MIC",64 µg/mL
same,MIC,"Acinetobacter baumannii, ROB23370 (adeS ISAba1), 20% HS, read-out: MIC",4 µg/mL
same,MIC,"Acinetobacter baumannii, ROB23371 (AdeS R152K), 20% HS, read-out: MIC",4 µg/mL
same,MIC,"Acinetobacter baumannii, ROB23373 (AdeS G318S), 20% HS, read-out: MIC",2 µg/mL
same,MIC,"Acinetobacter baumannii, ROB23377 (AdeS R108S), 20% HS, read-out: MIC",1 µg/mL
same,MIC,"Acinetobacter baumannii, ROB23380 (adeS ISAba1), 20% HS, read-out: MIC",8 µg/mL
same,MIC,"Acinetobacter baumannii, isolate 1061067, 20% HS, read-out: MIC",0.25 µg/mL
same,MIC,"Acinetobacter baumannii, isolate 1061145, 20% HS, read-out: MIC",0.125 µg/mL
same,MIC,"Acinetobacter baumannii, isolate 1065279, 20% HS, read-out: MIC",0.25 µg/mL
same,MIC,"Acinetobacter baumannii, isolate 1065391, 20% HS, read-out: MIC",0.25 µg/mL
same,MIC,"Acinetobacter baumannii, isolate 1065549, 20% HS, read-out: MIC",0.06 µg/mL
same,MIC,"Acinetobacter baumannii, isolate 1069554, 20% HS, read-out: MIC",0.06 µg/mL
same,MIC,"Acinetobacter baumannii, isolate 1072184, 20% HS, read-out: MIC",0.25 µg/mL
